According to PubChem BioAssay (NCI):
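The concentration for 50% growth inhibition is given as GI50. TGI is the concentration that stops growth completely.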

Key:
Assay in all cases: NCI anticancer screen, dose series, 384-well format
A498 renal = test system: A498 renal
PC-3 prostate = test system: PC-3 prostate
SK-MEL-28 melanoma = test system: SK-MEL-28 melanoma
TK-10 renal = test system: TK-10 renal
UACC-257 melanoma = test system: UACC-257 melanoma
OVCAR-4 ovarian = test system: OVCAR-4 ovarian
SW-620 colon = test system: SW-620 colon
MDA-MB-231 breast = test system: MDA-MB-231 breast
M14 melanoma = test system: M14 melanoma
HCT-116 colon = test system: HCT-116 colon
OVCAR-3 ovarian = test system: OVCAR-3 ovarian
KM12 colon = test system: KM12 colon
SK-MEL-2 melanoma = test system: SK-MEL-2 melanoma
HT29 colon = test system: HT29 colon
U251 glioblastoma = test system: U251 glioblastoma
T-47D breast = test system: T-47D breast
UO-31 renal = test system: UO-31 renal
MDA-MB-468 breast = test system: MDA-MB-468 breast
IGROV1 ovarian = test system: IGROV1 ovarian
CCRF-CEM leukemia = test system: CCRF-CEM leukemia
HCT-15 colon = test system: HCT-15 colon
MCF7 breast = test system: MCF7 breast
CAKI-1 renal = test system: CAKI-1 renal
RXF 393 renal = test system: RXF 393 renal
SN12C renal = test system: SN12C renal
MDA-MB-435 melanoma = test system: MDA-MB-435 melanoma
HOP-62 NSCLC = test system: HOP-62 NSCLC
786-0 renal = test system: 786-0 renal
HS 578T breast = test system: HS 578T breast
ACHN renal = test system: ACHN renal
MALME-3M melanoma = test system: MALME-3M melanoma
HOP-92 NSCLC = test system: HOP-92 NSCLC
OVCAR-8 ovarian = test system: OVCAR-8 ovarian
UACC-62 melanoma = test system: UACC-62 melanoma
LOX IMVI melanoma = test system: LOX IMVI melanoma
MOLT-4 leukemia = test system: MOLT-4 leukemia
DU-145 prostate = test system: DU-145 prostate
NCI-H322M lung = test system: NCI-H322M lung
HL-60(TB) leukemia = test system: HL-60(TB) leukemia
NCI/ADR-RES ovarian = test system: NCI/ADR-RES ovarian
NCI-H522 lung = test system: NCI-H522 lung
EKVX NSCLC = test system: EKVX NSCLC
RPMI-8226 leukemia = test system: RPMI-8226 leukemia
K-562 leukemia = test system: K-562 leukemia
OVCAR-5 ovarian = test system: OVCAR-5 ovarian
A549 NSCLC = test system: A549 NSCLC
SF-539 CNS = test system: SF-539 CNS
BT-549 breast = test system: BT-549 breast
SF-295 CNS = test system: SF-295 CNS
SNB-75 CNS = test system: SNB-75 CNS
SF-268 CNS = test system: SF-268 CNS
NCI-H23 lung = test system: NCI-H23 lung
SNB-19 CNS = test system: SNB-19 CNS
SK-OV-3 ovarian = test system: SK-OV-3 ovarian
NCI-H226 lung = test system: NCI-H226 lung

Compound: Cn1nnc2c(C(N)=O)ncn2c1=O
- GI50 (A498 renal): > 100 µM
- TGI (A498 renal): > 100 µM
- GI50 (PC-3 prostate): > 100 µM
- TGI (PC-3 prostate): > 100 µM
- GI50 (SK-MEL-28 melanoma): > 100 µM
- TGI (SK-MEL-28 melanoma): > 100 µM
- GI50 (TK-10 renal): > 100 µM
- TGI (TK-10 renal): > 100 µM
- GI50 (UACC-257 melanoma): > 100 µM
- TGI (UACC-257 melanoma): > 100 µM
- GI50 (OVCAR-4 ovarian): > 100 µM
- TGI (OVCAR-4 ovarian): > 100 µM
- GI50 (SW-620 colon): > 100 µM
- TGI (SW-620 colon): > 100 µM
- GI50 (MDA-MB-231 breast): > 100 µM
- TGI (MDA-MB-231 breast): > 100 µM
- GI50 (M14 melanoma): > 100 µM
- TGI (M14 melanoma): > 100 µM
- GI50 (HCT-116 colon): > 100 µM
- TGI (HCT-116 colon): > 100 µM
- GI50 (OVCAR-3 ovarian): > 100 µM
- TGI (OVCAR-3 ovarian): > 100 µM
- GI50 (KM12 colon): > 100 µM
- TGI (KM12 colon): > 100 µM
- GI50 (SK-MEL-2 melanoma): > 100 µM
- TGI (SK-MEL-2 melanoma): > 100 µM
- GI50 (HT29 colon): > 100 µM
- TGI (HT29 colon): > 100 µM
- GI50 (U251 glioblastoma): > 100 µM
- TGI (U251 glioblastoma): > 100 µM
- GI50 (T-47D breast): > 100 µM
- TGI (T-47D breast): > 100 µM
- GI50 (UO-31 renal): > 100 µM
- TGI (UO-31 renal): > 100 µM
- GI50 (MDA-MB-468 breast): > 100 µM
- TGI (MDA-MB-468 breast): > 100 µM
- GI50 (IGROV1 ovarian): > 100 µM
- TGI (IGROV1 ovarian): > 100 µM
- GI50 (CCRF-CEM leukemia): > 100 µM
- TGI (CCRF-CEM leukemia): > 100 µM
- GI50 (HCT-15 colon): > 100 µM
- TGI (HCT-15 colon): > 100 µM
- GI50 (MCF7 breast): > 100 µM
- TGI (MCF7 breast): > 100 µM
- GI50 (CAKI-1 renal): > 100 µM
- TGI (CAKI-1 renal): > 100 µM
- GI50 (RXF 393 renal): > 100 µM
- TGI (RXF 393 renal): > 100 µM
- GI50 (SN12C renal): > 100 µM
- TGI (SN12C renal): > 100 µM
- GI50 (MDA-MB-435 melanoma): > 100 µM
- TGI (MDA-MB-435 melanoma): > 100 µM
- GI50 (HOP-62 NSCLC): > 100 µM
- TGI (HOP-62 NSCLC): > 100 µM
- GI50 ([…]-0 renal): > 100 µM
- TGI (786-0 renal): > 100 µM
- GI50 (HS 578T breast): > 100 µM
- TGI (HS 578T breast): > 100 µM
- GI50 (ACHN renal): > 100 µM
- TGI (ACHN renal): > 100 µM
- GI50 (MALME-3M melanoma): > 100 µM
- TGI (MALME-3M melanoma): > 100 µM
- GI50 (HOP-92 NSCLC): > 100 µM
- TGI (HOP-92 NSCLC): > 100 µM
- GI50 (OVCAR-8 ovarian): > 100 µM
- TGI (OVCAR-8 ovarian): > 100 µM
- GI50 (UACC-62 melanoma): > 100 µM
- TGI (UACC-62 melanoma): > 100 µM
- GI50 (LOX IMVI melanoma): > 100 µM
- TGI (LOX IMVI melanoma): > 100 µM
- GI50 (MOLT-4 leukemia): > 100 µM
- TGI (MOLT-4 leukemia): > 100 µM
- GI50 (DU-145 prostate): > 100 µM
- TGI (DU-145 prostate): > 100 µM
- GI50 (NCI-H322M lung): > 100 µM
- TGI (NCI-H322M lung): > 100 µM
- GI50 (HL-60(TB) leukemia): > 100 µM
- TGI (HL-60(TB) leukemia): > 100 µM
- GI50 (NCI/ADR-RES ovarian): > 100 µM
- TGI (NCI/ADR-RES ovarian): > 100 µM
- GI50 (NCI-H522 lung): > 100 µM
- TGI (NCI-H522 lung): > 100 µM
- GI50 (EKVX NSCLC): > 100 µM
- TGI (EKVX NSCLC): > 100 µM
- GI50 (RPMI-8226 leukemia): > 100 µM
- TGI (RPMI-8226 leukemia): > 100 µM
- GI50 (K-562 leukemia): > 100 µM
- TGI (K-562 leukemia): > 100 µM
- GI50 (OVCAR-5 ovarian): > 100 µM
- TGI (OVCAR-5 ovarian): > 100 µM
- GI50 (A549 NSCLC): > 100 µM
- TGI (A549 NSCLC): > 100 µM
- GI50 (SF-539 CNS): > 100 µM
- TGI (SF-539 CNS): > 100 µM
- GI50 (BT-549 breast): > 100 µM
- TGI (BT-549 breast): > 100 µM
- GI50 (SF-295 CNS): > 100 µM
- TGI (SF-295 CNS): > 100 µM
- GI50 (SNB-75 CNS): > 100 µM
- TGI (SNB-75 CNS): > 100 µM
- GI50 (SF-268 CNS): > 100 µM
- TGI (SF-268 CNS): > 100 µM
- GI50 (NCI-H23 lung): > 100 µM
- TGI (NCI-H23 lung): > 100 µM
- GI50 (SNB-19 CNS): > 100 µM
- TGI (SNB-19 CNS): > 100 µM
- GI50 (SK-OV-3 ovarian): > 100 µM
- TGI (SK-OV-3 ovarian): > 100 µM
- GI50 (NCI-H226 lung): > 100 µM
- TGI (NCI-H226 lung): > 100 µM
